Six molecules from article PMC6627849, “Distant Non-Obvious Mutations Influence the Activity of a Hyperthermophilic Pyrococcus furiosus Phosphoglucose Isomerase” (Biomolecules, 2019) can be followed below.

Where a chain is given by its changes, count along the chain named. Numbers in names are those of the source.

In data set [1] the target is T1, PfPGI (cupin-type phosphoglucose isomerase) (Pyrococcus furiosus, UniProt P83194, P132R/Y133G).
T1 construct: gene pgiA; pgiA in pET24d, expressed in E. coli, heat treatment plus Q-Sepharose and Superdex 200
In words: X-ray crystal structure. The data set is classed as binding. Conditions: Mn2+ in active site; 5PAA formed from F6P in the crystallization solution; pH 5.5.

For data set [2], the target named is T2, PfPGI (cupin-type phosphoglucose isomerase) (Pyrococcus furiosus, UniProt P83194, P132A/Y133G).
T2 construct: gene pgiA; pgiA in pET24d, expressed in E. coli, heat treatment plus Q-Sepharose and Superdex 200
T2 sequence (P83194 whole entry P132A/Y133G): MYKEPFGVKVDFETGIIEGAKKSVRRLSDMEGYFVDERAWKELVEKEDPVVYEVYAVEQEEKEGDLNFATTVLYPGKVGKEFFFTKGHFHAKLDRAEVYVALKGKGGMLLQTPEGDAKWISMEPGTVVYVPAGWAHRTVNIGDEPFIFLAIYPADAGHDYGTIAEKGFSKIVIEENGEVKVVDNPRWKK
In words: EPR of Mn2+ coordination on adding F6P. The data set is classed as binding. Conditions: 10 mM F6P, 0.2 mM MnCl2, pH 8.0; spectra at 13 K.

Data set [3] concerns the target T3, PfPGI (cupin-type phosphoglucose isomerase) (Pyrococcus furiosus, UniProt P83194, P132A/Y133D).
T3 construct: gene pgiA; pgiA in pET24d, expressed in E. coli, heat treatment plus Q-Sepharose and Superdex 200
In words: EPR of Mn2+ coordination on adding F6P. The class given is binding. The note with it: 10 mM F6P, 0.2 mM MnCl2, pH 8.0; spectra at 13 K; F6P not seen in the crystal structure.

Data set [4] concerns the target T1, PfPGI (cupin-type phosphoglucose isomerase). As to the kind of experiment: EPR of Mn2+ coordination on adding F6P. The data set is classed as binding. The note with it: 10 mM F6P, 0.2 mM MnCl2, pH 8.0; spectra at 13 K.
Data set [5] concerns the molecule itself. In words: crystal structure; PfPGI mutants at 11.5 mg/mL in 10 mM Tris/HCl pH 8.0, 50 mM F6P, 5 mM MnCl2; molecular replacement with wild-type PfPGI (PDB 1X82); RG, AD and VY with chains A and B, AG with the two subunits related by crystal symmetry.

T3 sequence (P83194 whole entry P132A/Y133D): as the sequence (P83194 whole entry P132A/Y133G) above, with G133D counted along it

Take `O=C(O)[C@@H](O)[C@H](O)[C@H](O)COP(=O)(O)O` [5PAA, 5-phosphoarabinonic acid]: the X-ray crystal structure in data set [1] is reported as 5-phosphoarabinonic acid (5PAA), rather than F6P (as added to the crystallization mixture) was bound.

Consider `O=P(O)(O)OC[C@H]1OC(O)(CO)[C@@H](O)[C@@H]1O` (some centres unmarked) [F6P, fructose-6-phosphate], for which the “EPR of Mn2+ coordination on adding F6P” value in data set [2], in data set [3] and in data set [4] was “addition of F6P to any of the manganese-containing PfPGI mutants lead to a collapse” in each case.

B1: PfPGI mutant P132R/Y133G (cupin-type phosphoglucose isomerase of Pyrococcus furiosus) (enzyme)
chain: MYKEPFGVKVDFETGIIEGAKKSVRRLSDMEGYFVDERAWKELVEKEDPVVYEVYAVEQEEKEGDLNFATTVLYPGKVGKEFFFTKGHFHAKLDRAEVYVALKGKGGMLLQTPEGDAKWISMEPGTVVYVPRGWAHRTVNIGDEPFIFLAIYPADAGHDYGTIAEKGFSKIVIEENGEVKVVDNPRWKK
notes: cupin-type phosphoglucose isomerase (PfPGI, EC 5.3.1.9), gene pgiA, Pyrococcus furiosus; monomeric subunit 21.5 kDa; the models have no missing residues, residues up to Lys189 are named; Crystallised with MnCl2 and F6P; 5PAA found in the active site; also called RG; mutant RG; source: E. coli (pET24d), overexpressed and purified as described previously [32]
On to B1, for which the binding result in data set [5] was “binds”.

B2: PfPGI mutant P132A/Y133D (cupin-type phosphoglucose isomerase of Pyrococcus furiosus) (enzyme)
chain: B1 chain with R132A, G133D
notes: cupin-type phosphoglucose isomerase (PfPGI, EC 5.3.1.9), gene pgiA, Pyrococcus furiosus; monomeric subunit 21.5 kDa; the models have no missing residues, residues up to Lys189 are named; Structure holds only Mn2+ in the active site; also called AD; mutant AD; source: E. coli (pET24d), overexpressed and purified as described previously [32]
As for B2, in data set [5], the binding result is “binds”.

B3: PfPGI mutant P132V (cupin-type phosphoglucose isomerase of Pyrococcus furiosus) (enzyme)
chain: B1 chain with R132V, G133Y
notes: cupin-type phosphoglucose isomerase (PfPGI, EC 5.3.1.9), gene pgiA, Pyrococcus furiosus; monomeric subunit 21.5 kDa; the models have no missing residues, residues up to Lys189 are named; Crystals grown with MnCl2 and soaked with F6P; also called VY; mutant VY; source: E. coli (pET24d), overexpressed and purified as described previously [32]
With B3, the binding result in data set [5] is “binds”.

B4: PfPGI mutant P132A/Y133G (cupin-type phosphoglucose isomerase of Pyrococcus furiosus) (enzyme)
chain: B1 chain with R132A
notes: cupin-type phosphoglucose isomerase (PfPGI, EC 5.3.1.9), gene pgiA, Pyrococcus furiosus; monomeric subunit 21.5 kDa; the models have no missing residues, residues up to Lys189 are named; Crystallised with MnCl2 and F6P; 5PAA found in the active site; The two subunits of the dimer are related by crystal symmetry; also called AG; mutant AG; source: E. coli (pET24d), overexpressed and purified as …
Take B4: in data set [5], the binding result is “binds”.
